Assay: Clinical study of bioavailability and pharmacokinetic properties, multiple oral dose crossover
Assay type: in vivo, healthy subjects
Settings: Mean; analyte cannabidiol in plasma; 1,500 mg CBD oral twice daily over 7 days after a light meal; 144-168 h
Method: Bioavailability and pharmacokinetic properties of cannabidiol when administered orally in the form of the above described CBD granules containing 29.7% w/w cannabidiol was assessed in a clinical study.
The study involved a comparison with a reference product, an oily cannabidiol solution (DAC C-052 “Cannabidiol”/NRF 22.10 “Ölige Cannabidiol-Lösung 100 mg/ml” (“Oily cannabidiol solution 100 mg/ml”)) and was set up as an open-label, randomised (order of treatments), balanced, multiple dose trial was performed in a 2-period, 2-sequence-crossover design with direct switch-over.
Eighteen (18) healthy subjects of both sexes were randomised. The inclusion criteria involved a body-mass index (BMI)≥18.5 kg/m^2 and ≤30.0 kg/m^2.
The investigational medicinal products were administered after a light meal as single oral doses of 1500 mg cannabidiol (i.e., 5.051 g granules dispersed in water or 15 ml solution) twice daily (i.e., every 12 h) over 7 consecutive days.
Steady-state characterisation was performed over 2 dosing intervals. […]
Cannabidiol (CBD) and its metabolite 7-hydoxy cannabidiol (7-OH-CBD) in plasma samples were analysed by use of a validated LC-MS/MS; LLOQ for CBD was 5.00 ng/ml and for 7-OH-CBD was 1.000 ng/ml.

C=C(C)[C@@H]1CCC(C)=C[C@H]1c1c(O)cc(CCCCC)cc1O [cannabidiol, 2-[(1R,6R)-3-methyl-6-(1-methylethenyl)-2-cyclohexen-1-yl]-5-pentyl-1,3-benzenediol]
PTF %,144-168: about 250%
